Data taken from patent US9809578B2, “Pyrazolyl urea, thiourea, guanidine and cyanoguanidine compounds as trkA kinase inhibitors” (Array BioPharma Inc., priority 2012, dated 2017).

What was measured:
Assay type in all cases: biochemical
Conditions in all cases: 10 μM, ATP near Km
[1] = target: T1, HIPK3 (Homo sapiens, UniProt Q9H422); test: KinaseProfiler HIPK3
T1 construct: purchased Millipore, Inc. (KinaseProfiler service)
Source text: (§1) The compound was run in duplicate at a concentration of ATP near the Km for each individual kinase according to Millipore's specifications.

[2] = target: T2, JNK1alpha1 (Homo sapiens, UniProt P45983); test: KinaseProfiler JNK1alpha1
T2 construct: purchased Millipore, Inc. (KinaseProfiler service)
Source text: as §1

[3] = target: T3, IRR (Homo sapiens, UniProt P14616); test: KinaseProfiler IRR
T3 construct: purchased Millipore, Inc. (KinaseProfiler service)
Source text: as §1

[4] = target: T4, CK1gamma1 (Homo sapiens, UniProt Q9HCP0); test: KinaseProfiler CK1gamma1
T4 construct: purchased Millipore, Inc. (KinaseProfiler service)
Source text: as §1

[5] = target: T5, MAP3K5 (Homo sapiens, UniProt Q99683); test: KinaseProfiler MAP3K5
T5 construct: purchased Millipore, Inc. (KinaseProfiler service)
Source text: as §1

[6] = target: T6, PRKG1beta (Homo sapiens, UniProt Q13976); test: KinaseProfiler PRKG1beta
T6 construct: purchased Millipore, Inc. (KinaseProfiler service)
Source text: as §1

[7] = target: T7, Mer (Homo sapiens, UniProt Q12866); test: KinaseProfiler Mer
T7 construct: purchased Millipore, Inc. (KinaseProfiler service)
Source text: as §1

[8] = target: T8, TLK2 (Homo sapiens, UniProt Q86UE8); test: KinaseProfiler TLK2
T8 construct: purchased Millipore, Inc. (KinaseProfiler service)
Source text: as §1

[9] = target: T9, DDR2 (Homo sapiens, UniProt Q16832); test: KinaseProfiler DDR2
T9 construct: purchased Millipore, Inc. (KinaseProfiler service)
Source text: as §1

[10] = target: T10, TAO3 (Homo sapiens, UniProt Q9H2K8); test: KinaseProfiler TAO3
T10 construct: purchased Millipore, Inc. (KinaseProfiler service)
Source text: as §1

[11] = target: T11, LIMK1 (Homo sapiens, UniProt P53667); test: KinaseProfiler LIMK1
T11 construct: purchased Millipore, Inc. (KinaseProfiler service)
Source text: as §1

[12] = target: T12, CDK5/p35 (Homo sapiens, UniProt Q00535); test: KinaseProfiler CDK5/p35
T12 construct: purchased Millipore, Inc. (KinaseProfiler service)
Source text: as §1

[13] = target: T13, ALK (Homo sapiens, UniProt Q9UM73); test: KinaseProfiler ALK
T13 construct: purchased Millipore (KinaseProfiler service)
T13 sequence (Q9UM73 19-1620): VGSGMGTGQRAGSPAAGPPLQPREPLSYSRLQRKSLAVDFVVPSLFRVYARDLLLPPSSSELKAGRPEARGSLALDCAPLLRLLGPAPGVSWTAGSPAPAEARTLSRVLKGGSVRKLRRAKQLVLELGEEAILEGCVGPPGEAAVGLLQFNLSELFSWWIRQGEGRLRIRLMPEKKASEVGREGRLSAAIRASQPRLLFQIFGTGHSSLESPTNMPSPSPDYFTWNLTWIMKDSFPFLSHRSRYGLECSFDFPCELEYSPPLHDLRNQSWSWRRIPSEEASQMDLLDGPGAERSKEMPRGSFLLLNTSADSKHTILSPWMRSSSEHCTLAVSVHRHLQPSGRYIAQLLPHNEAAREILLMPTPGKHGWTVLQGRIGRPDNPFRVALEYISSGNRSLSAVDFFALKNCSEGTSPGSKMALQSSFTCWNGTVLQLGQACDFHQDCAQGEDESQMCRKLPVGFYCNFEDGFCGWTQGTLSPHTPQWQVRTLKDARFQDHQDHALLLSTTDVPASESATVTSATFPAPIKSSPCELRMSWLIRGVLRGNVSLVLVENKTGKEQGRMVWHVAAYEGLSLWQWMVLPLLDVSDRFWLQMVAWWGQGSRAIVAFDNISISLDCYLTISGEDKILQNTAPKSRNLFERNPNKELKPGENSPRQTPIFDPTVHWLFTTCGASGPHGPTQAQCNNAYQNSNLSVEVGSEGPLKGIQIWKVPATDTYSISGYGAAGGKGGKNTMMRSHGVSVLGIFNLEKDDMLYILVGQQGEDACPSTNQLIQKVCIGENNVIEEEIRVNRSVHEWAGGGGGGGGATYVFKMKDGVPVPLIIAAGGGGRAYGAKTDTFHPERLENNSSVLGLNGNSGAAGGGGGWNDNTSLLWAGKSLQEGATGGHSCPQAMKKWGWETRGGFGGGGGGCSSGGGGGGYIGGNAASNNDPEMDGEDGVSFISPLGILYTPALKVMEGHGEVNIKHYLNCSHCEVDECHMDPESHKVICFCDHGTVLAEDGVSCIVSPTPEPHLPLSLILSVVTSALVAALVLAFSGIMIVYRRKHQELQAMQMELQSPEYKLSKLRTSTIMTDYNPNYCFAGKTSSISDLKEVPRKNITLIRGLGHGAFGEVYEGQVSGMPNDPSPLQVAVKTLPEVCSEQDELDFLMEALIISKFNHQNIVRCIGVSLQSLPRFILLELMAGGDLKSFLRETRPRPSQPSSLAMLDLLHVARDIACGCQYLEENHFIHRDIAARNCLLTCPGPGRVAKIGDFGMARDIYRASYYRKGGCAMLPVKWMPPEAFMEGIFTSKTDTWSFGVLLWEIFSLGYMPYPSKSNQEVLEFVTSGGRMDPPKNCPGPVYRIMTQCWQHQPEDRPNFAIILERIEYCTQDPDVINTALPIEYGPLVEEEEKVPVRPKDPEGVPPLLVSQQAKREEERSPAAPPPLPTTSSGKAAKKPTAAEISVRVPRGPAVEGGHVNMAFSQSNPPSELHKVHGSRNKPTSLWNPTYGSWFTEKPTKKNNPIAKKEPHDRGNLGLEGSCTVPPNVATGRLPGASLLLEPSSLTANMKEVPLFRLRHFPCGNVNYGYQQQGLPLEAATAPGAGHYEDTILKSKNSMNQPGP
Source text: as §1

[14] = target: T14, NEK2 (Homo sapiens, UniProt P51955); test: KinaseProfiler NEK2
T14 construct: purchased Millipore, Inc. (KinaseProfiler service)
Source text: as §1

[15] = target: T15, TNK2 (Homo sapiens, UniProt Q07912); test: KinaseProfiler TNK2
T15 construct: purchased Millipore, Inc. (KinaseProfiler service)
Source text: as §1

[16] = target: T16, Axl (Homo sapiens, UniProt P30530); test: KinaseProfiler Axl
T16 construct: purchased Millipore (KinaseProfiler service)
Source text: as §1

[17] = target: T17, SGK3 (Homo sapiens, UniProt Q96BR1); test: KinaseProfiler SGK3
T17 construct: purchased Millipore, Inc. (KinaseProfiler service)
Source text: as §1

[18] = target: T18, Plk2 (Homo sapiens, UniProt Q9NYY3); test: KinaseProfiler Plk2
T18 construct: purchased Millipore, Inc. (KinaseProfiler service)
Source text: as §1

[19] = target: T19, Hck (Homo sapiens, UniProt P08631); test: KinaseProfiler Hck
T19 construct: purchased Millipore, Inc. (KinaseProfiler service)
Source text: as §1

[20] = target: T20, DAPK3 (Homo sapiens, UniProt O43293); test: KinaseProfiler DAPK3
T20 construct: purchased Millipore, Inc. (KinaseProfiler service)
Source text: as §1

[21] = target: T21, MEK1 (Homo sapiens, UniProt Q02750); test: KinaseProfiler MEK1
T21 construct: purchased Millipore, Inc. (KinaseProfiler service)
Source text: as §1

[22] = target: T22, AKT2 (Homo sapiens, UniProt P31751); test: KinaseProfiler AKT2
T22 construct: purchased Millipore (KinaseProfiler service)
Source text: as §1

[23] = target: T23, GRK5 (Homo sapiens, UniProt P34947); test: KinaseProfiler GRK5
T23 construct: purchased Millipore, Inc. (KinaseProfiler service)
Source text: as §1

[24] = target: T24, PKCgamma (Homo sapiens, UniProt P05129); test: KinaseProfiler PKCgamma
T24 construct: purchased Millipore, Inc. (KinaseProfiler service)
Source text: as §1

[25] = target: T25, PAK4 (Homo sapiens, UniProt O96013); test: KinaseProfiler PAK4
T25 construct: purchased Millipore, Inc. (KinaseProfiler service)
Source text: as §1

[26] = target: T26, AKT3 (Homo sapiens, UniProt Q9Y243); test: KinaseProfiler AKT3
T26 construct: purchased Millipore (KinaseProfiler service)
Source text: as §1

[27] = target: T27, IKKbeta (Homo sapiens, UniProt O14920); test: KinaseProfiler IKKbeta
T27 construct: purchased Millipore, Inc. (KinaseProfiler service)
Source text: as §1

[28] = target: T28, Tie2 (Homo sapiens, UniProt Q02763); test: KinaseProfiler Tie2
T28 construct: purchased Millipore, Inc. (KinaseProfiler service)
T28 sequence (Q02763 23-1124): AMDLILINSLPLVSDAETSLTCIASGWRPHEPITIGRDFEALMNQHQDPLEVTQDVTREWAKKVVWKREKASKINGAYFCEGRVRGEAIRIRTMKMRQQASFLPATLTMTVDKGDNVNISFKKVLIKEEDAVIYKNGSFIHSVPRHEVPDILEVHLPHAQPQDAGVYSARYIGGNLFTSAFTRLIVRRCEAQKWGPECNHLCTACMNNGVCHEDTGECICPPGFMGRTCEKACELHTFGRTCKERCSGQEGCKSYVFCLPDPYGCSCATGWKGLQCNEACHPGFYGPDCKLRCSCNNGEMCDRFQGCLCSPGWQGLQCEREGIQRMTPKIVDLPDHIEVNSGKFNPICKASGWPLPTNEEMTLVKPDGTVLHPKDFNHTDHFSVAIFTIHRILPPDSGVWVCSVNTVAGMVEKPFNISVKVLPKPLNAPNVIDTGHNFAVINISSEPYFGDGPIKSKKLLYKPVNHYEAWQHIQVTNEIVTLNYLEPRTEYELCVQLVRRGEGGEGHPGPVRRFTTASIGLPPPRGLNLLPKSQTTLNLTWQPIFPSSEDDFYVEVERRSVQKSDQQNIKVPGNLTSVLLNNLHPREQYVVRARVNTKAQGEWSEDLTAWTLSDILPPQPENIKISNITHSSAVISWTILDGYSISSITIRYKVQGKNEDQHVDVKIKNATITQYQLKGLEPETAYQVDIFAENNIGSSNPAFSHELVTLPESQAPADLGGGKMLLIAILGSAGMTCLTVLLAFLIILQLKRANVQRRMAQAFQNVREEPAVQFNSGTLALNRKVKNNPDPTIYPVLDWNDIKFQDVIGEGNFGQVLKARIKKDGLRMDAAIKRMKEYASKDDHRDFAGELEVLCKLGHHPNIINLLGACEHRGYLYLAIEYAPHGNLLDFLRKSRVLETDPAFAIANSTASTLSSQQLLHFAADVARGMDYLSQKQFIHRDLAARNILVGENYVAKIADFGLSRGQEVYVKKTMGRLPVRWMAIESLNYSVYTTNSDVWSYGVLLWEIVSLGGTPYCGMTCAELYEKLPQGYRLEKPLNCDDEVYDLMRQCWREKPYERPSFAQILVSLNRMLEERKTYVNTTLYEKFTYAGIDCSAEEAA
Source text: as §1

[29] = target: T29, TBK1 (Homo sapiens, UniProt Q9UHD2); test: KinaseProfiler TBK1
T29 construct: purchased Millipore, Inc. (KinaseProfiler service)
Source text: as §1

[30] = target: T30, FGFR4 (Homo sapiens, UniProt P22455); test: KinaseProfiler FGFR4
T30 construct: purchased Millipore, Inc. (KinaseProfiler service)
Source text: as §1

[31] = target: T31, JNK2alpha2 (Homo sapiens, UniProt P45984); test: KinaseProfiler JNK2alpha2
T31 construct: purchased Millipore, Inc. (KinaseProfiler service)
Source text: as §1

[32] = target: T32, MAPKAP-K2 (Homo sapiens, UniProt P49137); test: KinaseProfiler MAPKAP-K2
T32 construct: purchased Millipore, Inc. (KinaseProfiler service)
Source text: as §1

[33] = target: T33, c-RAF (Homo sapiens, UniProt P04049, Y340D/Y341D); test: KinaseProfiler c-RAF
T33 construct: purchased Millipore, Inc. (KinaseProfiler service)
Source text: as §1

[34] = target: T34, PASK (Homo sapiens, UniProt Q96RG2); test: KinaseProfiler PASK
T34 construct: purchased Millipore, Inc. (KinaseProfiler service)
T34 sequence (Q96RG2 whole entry): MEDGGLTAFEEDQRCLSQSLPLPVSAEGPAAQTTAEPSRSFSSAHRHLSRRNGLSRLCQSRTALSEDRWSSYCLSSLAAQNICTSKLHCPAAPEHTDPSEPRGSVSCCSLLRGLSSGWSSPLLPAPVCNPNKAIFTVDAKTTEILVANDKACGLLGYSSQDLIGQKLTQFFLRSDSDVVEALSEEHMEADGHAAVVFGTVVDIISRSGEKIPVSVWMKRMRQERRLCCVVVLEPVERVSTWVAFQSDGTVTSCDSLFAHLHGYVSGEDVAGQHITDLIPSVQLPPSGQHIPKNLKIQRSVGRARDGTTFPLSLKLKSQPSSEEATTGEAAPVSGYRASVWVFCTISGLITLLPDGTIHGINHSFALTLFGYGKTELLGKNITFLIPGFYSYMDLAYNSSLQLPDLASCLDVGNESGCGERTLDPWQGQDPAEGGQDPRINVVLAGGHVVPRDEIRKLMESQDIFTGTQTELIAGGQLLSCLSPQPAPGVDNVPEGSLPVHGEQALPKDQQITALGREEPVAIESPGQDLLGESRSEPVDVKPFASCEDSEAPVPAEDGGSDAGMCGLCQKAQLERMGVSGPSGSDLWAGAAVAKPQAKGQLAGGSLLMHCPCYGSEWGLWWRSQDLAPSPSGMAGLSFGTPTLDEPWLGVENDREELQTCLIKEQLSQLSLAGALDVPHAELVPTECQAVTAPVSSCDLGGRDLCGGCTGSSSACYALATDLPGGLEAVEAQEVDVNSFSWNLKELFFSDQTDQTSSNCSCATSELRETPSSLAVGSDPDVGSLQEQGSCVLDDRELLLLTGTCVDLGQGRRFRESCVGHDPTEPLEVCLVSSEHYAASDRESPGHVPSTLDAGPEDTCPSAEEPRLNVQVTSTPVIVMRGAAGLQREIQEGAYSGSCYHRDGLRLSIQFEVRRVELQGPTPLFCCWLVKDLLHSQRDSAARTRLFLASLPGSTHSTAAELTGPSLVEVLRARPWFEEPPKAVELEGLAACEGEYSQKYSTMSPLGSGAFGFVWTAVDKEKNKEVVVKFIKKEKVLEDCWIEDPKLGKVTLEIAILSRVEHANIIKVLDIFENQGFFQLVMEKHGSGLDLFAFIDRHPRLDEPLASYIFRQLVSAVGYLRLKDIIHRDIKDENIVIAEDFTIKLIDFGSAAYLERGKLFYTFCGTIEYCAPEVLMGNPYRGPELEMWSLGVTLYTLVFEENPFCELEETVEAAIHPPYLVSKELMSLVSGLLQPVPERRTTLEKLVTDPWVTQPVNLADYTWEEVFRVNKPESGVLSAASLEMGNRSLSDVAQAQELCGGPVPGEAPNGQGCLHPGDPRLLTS
Source text: as §1

[35] = target: T35, ErbB4 (Homo sapiens, UniProt Q15303); test: KinaseProfiler ErbB4
T35 construct: purchased Millipore, Inc. (KinaseProfiler service)
Source text: as §1

[36] = target: T36, PKCbetaI (Homo sapiens, UniProt P05771); test: KinaseProfiler PKCbetaI
T36 construct: purchased Millipore, Inc. (KinaseProfiler service)
Source text: as §1

[37] = target: T37, TAO1 (Homo sapiens, UniProt Q7L7X3); test: KinaseProfiler TAO1
T37 construct: purchased Millipore, Inc. (KinaseProfiler service)
Source text: as §1

[38] = target: T38, TEC Activated (Homo sapiens, UniProt P42680); test: KinaseProfiler TEC Activated
T38 construct: purchased Millipore, Inc. (KinaseProfiler service)
Source text: as §1

[39] = target: T39, FAK2 (Homo sapiens, UniProt Q14289); test: KinaseProfiler FAK2
T39 construct: purchased Millipore, Inc. (KinaseProfiler service)
Source text: as §1

[40] = target: T40, MSK2 (Homo sapiens, UniProt O75676); test: KinaseProfiler MSK2
T40 construct: purchased Millipore, Inc. (KinaseProfiler service)
T40 sequence (O75676 whole entry): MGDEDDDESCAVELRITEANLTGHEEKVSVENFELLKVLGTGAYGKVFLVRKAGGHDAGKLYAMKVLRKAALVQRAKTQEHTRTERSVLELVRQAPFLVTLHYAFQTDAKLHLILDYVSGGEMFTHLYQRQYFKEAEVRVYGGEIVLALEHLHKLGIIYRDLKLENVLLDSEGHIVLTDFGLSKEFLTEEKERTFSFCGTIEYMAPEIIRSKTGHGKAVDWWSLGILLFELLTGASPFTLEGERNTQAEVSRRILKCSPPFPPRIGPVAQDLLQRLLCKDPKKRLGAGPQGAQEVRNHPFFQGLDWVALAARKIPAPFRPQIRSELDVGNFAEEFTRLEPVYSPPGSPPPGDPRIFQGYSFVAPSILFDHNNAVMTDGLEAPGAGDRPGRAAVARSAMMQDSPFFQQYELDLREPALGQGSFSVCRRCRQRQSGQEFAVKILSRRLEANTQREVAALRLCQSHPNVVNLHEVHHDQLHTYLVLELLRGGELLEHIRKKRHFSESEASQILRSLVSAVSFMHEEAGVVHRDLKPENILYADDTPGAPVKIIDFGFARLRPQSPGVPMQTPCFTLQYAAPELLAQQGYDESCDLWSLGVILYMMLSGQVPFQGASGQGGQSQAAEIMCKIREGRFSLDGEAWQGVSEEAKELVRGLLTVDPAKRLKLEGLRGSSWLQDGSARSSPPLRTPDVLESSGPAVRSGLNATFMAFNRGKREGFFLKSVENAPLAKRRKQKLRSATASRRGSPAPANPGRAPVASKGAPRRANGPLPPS
Source text: as §1

[41] = target: T41, SIK (Homo sapiens, UniProt P57059); test: KinaseProfiler SIK
T41 construct: purchased Millipore, Inc. (KinaseProfiler service)
Source text: as §1

[42] = target: T42, TrkB (Homo sapiens, UniProt Q16620); test: KinaseProfiler TrkB
T42 construct: purchased Millipore, Inc. (KinaseProfiler service)
Source text: as §1

[43] = target: T43, ULK2 (Homo sapiens, UniProt Q8IYT8); test: KinaseProfiler ULK2
T43 construct: purchased Millipore, Inc. (KinaseProfiler service)
Source text: as §1

## Cc1c(-c2cnn(C)c2)nn(-c2ccccc2)c1NC(=O)Nc1cc(C(F)(F)F)nn1-c1ccccc1 [Example 3, 1-(1′,4-dimethyl-1-phenyl-1H,1′H-[3,4′-bipyrazol]-5-yl)-3-(1-phenyl-3-(trifluoromethyl)-1H-pyrazol-5-yl)urea]
[1]
  Avg POC: 109.5 POC
[2]
  Avg POC: 111.5 POC
[3]
  Avg POC: 99.5 POC
[4]
  Avg POC: 112 POC
[5]
  Avg POC: 102 POC
[6]
  Avg POC: 98 POC
[7]
  Avg POC: 104.5 POC
[8]
  Avg POC: 108.5 POC
[9]
  Avg POC: 98 POC
[10]
  Avg POC: 94 POC
[11]
  Avg POC: 92 POC
[12]
  Avg POC: 110.5 POC
[13]
  Avg POC: 110 POC
[14]
  Avg POC: 125.5 POC
[15]
  Avg POC: 118.5 POC
[16]
  Avg POC: 117 POC
[17]
  Avg POC: 133 POC
[18]
  Avg POC: 106 POC
[19]
  Avg POC: 110.5 POC
[20]
  Avg POC: 118.5 POC
[21]
  Avg POC: 111 POC
[22]
  Avg POC: 219.5 POC
[23]
  Avg POC: 84 POC
[24]
  Avg POC: 100 POC
[25]
  Avg POC: 103 POC
[26]
  Avg POC: 99 POC
[27]
  Avg POC: 123 POC
[28]
  Avg POC: 121.5 POC
[29]
  Avg POC: 103 POC
[30]
  Avg POC: 174.5 POC
[31]
  Avg POC: 99.5 POC
[32]
  Avg POC: 142.5 POC
[33]
  Avg POC: 94.5 POC
[34]
  Avg POC: 147 POC
[35]
  Avg POC: 126 POC
[36]
  Avg POC: 87 POC
[37]
  Avg POC: 119 POC
[38]
  Avg POC: 144.5 POC
[39]
  Avg POC: 103.5 POC
[40]
  Avg POC: 119.5 POC
[41]
  Avg POC: 154.5 POC
[42]
  Avg POC: 95 POC
[43]
  Avg POC: 98 POC
